Assay results as given in ChEMBL document CHEMBL4725427, “Synthesis and SAR Studies of 1H-Pyrrolo[2,3-b]pyridine-2-carboxamides as Phosphodiesterase 4B (PDE4B) Inhibitors” (ACS Med Chem Lett, 2020).

Experiments:
[1] = Effect on TNFalpha production in C57BL/6 mouse bone marrow derived Macrophage at 1 to 10 uM incubated for 30 mins by ELISA; settings: 0.5 h
[2] = Metabolic stability in human liver microsomes assessed as intrinsic clearance; type: ADME, Microsome; settings: read-out: CLH
[3] = Metabolic stability in mouse liver microsomes assessed as intrinsic clearance; type: ADME, Microsome; settings: read-out: CLH
[4] = Protein binding in human plasma assessed as unbound fraction; type: ADME, cell-free
[5] = Metabolic stability in human Hepatocyte assessed as half life; type: ADME, tissue-based; settings: hepatocytes
[6] = biological target: Dual specificity calcium/calmodulin-dependent 3',5'-cyclic nucleotide phosphodiesterase 1A (Homo sapiens) (UniProt P54750); experiment: Inhibition of recombinant human N-terminal GST-tagged PDE1A1 expressed in baculovirus infected Sf9 cells at 10 uM by radioligand assay relative to control
[7] = biological target: Dual specificity calcium/calmodulin-dependent 3',5'-cyclic nucleotide phosphodiesterase 1C (Homo sapiens) (UniProt Q14123); experiment: Inhibition of recombinant human N-terminal GST-tagged PDE1C expressed in baculovirus infected Sf9 cells at 10 uM by radioligand assay relative to control
[8] = biological target: cGMP-dependent 3',5'-cyclic phosphodiesterase (Homo sapiens) (UniProt O00408); experiment: Inhibition of recombinant human N-terminal FLAG-tagged PDE2A1 (2 to 941 residues) expressed in baculovirus infected Sf9 cells at 10 uM by radioligand assay relative to control
[9] = Inhibition of recombinant human N-terminal GST-tagged PDE4A1A (1 to 647 residues) expressed in baculovirus infected Sf9 cells at 10 uM by radioligand assay relative to control
[10] = biological target: 3',5'-cyclic-AMP phosphodiesterase 4C (Homo sapiens) (UniProt Q08493); experiment: Inhibition of recombinant human N-terminal GST-tagged PDE4C1 expressed in baculovirus infected Sf9 cells at 10 uM by radioligand assay relative to control
[11] = biological target: Cone cGMP-specific 3',5'-cyclic phosphodiesterase subunit alpha' (Homo sapiens) (UniProt P51160); experiment: Inhibition of recombinant human N-terminal GST-tagged PDE6C expressed in baculovirus infected Sf9 cells at 10 uM by radioligand assay relative to control
[12] = biological target: High affinity cAMP-specific and IBMX-insensitive 3',5'-cyclic phosphodiesterase 8A (Homo sapiens) (UniProt O60658); experiment: Inhibition of recombinant human N-terminal GST-tagged PDE8A1 expressed in baculovirus infected Sf9 cells at 10 uM by radioligand assay relative to control
[13] = biological target: cAMP and cAMP-inhibited cGMP 3',5'-cyclic phosphodiesterase 10A (Homo sapiens) (UniProt Q9Y233); experiment: Inhibition of recombinant human N-terminal GST-tagged PDE10A1 (2 to 789 residues) expressed in baculovirus infected Sf9 cells at 10 uM by radioligand assay relative to control
[14] = biological target: cAMP and cAMP-inhibited cGMP 3',5'-cyclic phosphodiesterase 10A (Homo sapiens) (UniProt Q9Y233); experiment: Inhibition of recombinant human N-terminal GST-tagged PDE10A2 expressed in baculovirus infected Sf9 cells at 10 uM by radioligand assay relative to control
[15] = biological target: Dual 3',5'-cyclic-AMP and -GMP phosphodiesterase 11A (Homo sapiens) (UniProt Q9HCR9); experiment: Inhibition of recombinant human N-terminal GST-tagged PDE11A4 expressed in baculovirus infected Sf9 cells at 10 uM by radioligand assay relative to control
[16] = biological target: 5-hydroxytryptamine receptor 1A (Homo sapiens) (UniProt P08908); experiment: Inhibition of 5HT1A (unknown origin) relative to control; settings: concentration not given here
[17] = biological target: 5-hydroxytryptamine receptor 1B (Homo sapiens) (UniProt P28222); experiment: Inhibition of 5HT1B (unknown origin) relative to control; settings: concentration not given here
[18] = biological target: 5-hydroxytryptamine receptor 1E (Homo sapiens) (UniProt P28566); experiment: Inhibition of 5HT1E (unknown origin) relative to control; settings: concentration not given here
[19] = biological target: 5-hydroxytryptamine receptor 2A (Homo sapiens) (UniProt P28223); experiment: Inhibition of 5HT2A (unknown origin) relative to control; settings: concentration not given here
[20] = biological target: 5-hydroxytryptamine receptor 2B (Homo sapiens) (UniProt P41595); experiment: Inhibition of 5HT2B (unknown origin) relative to control; settings: concentration not given here
[21] = biological target: 5-hydroxytryptamine receptor 5A (Homo sapiens) (UniProt P47898); experiment: Inhibition of 5HT5A (unknown origin) relative to control; settings: concentration not given here
[22] = biological target: 5-hydroxytryptamine receptor 6 (Homo sapiens) (UniProt P50406); experiment: Inhibition of 5HT6 (unknown origin) relative to control; settings: concentration not given here
[23] = biological target: Alpha-1A adrenergic receptor (Homo sapiens) (UniProt P35348); experiment: Inhibition of adrenoceptor alpha 1A (unknown origin) relative to control; settings: concentration not given here
[24] = biological target: Alpha-1B adrenergic receptor (Homo sapiens) (UniProt P35368); experiment: Inhibition of adrenoceptor alpha 1B (unknown origin) relative to control; settings: concentration not given here
[25] = biological target: Alpha-1D adrenergic receptor (Homo sapiens) (UniProt P25100); experiment: Inhibition of adrenoceptor alpha 1D (unknown origin) relative to control; settings: concentration not given here
[26] = biological target: Alpha-2A adrenergic receptor (Homo sapiens) (UniProt P08913); experiment: Inhibition of adrenoceptor alpha 2A (unknown origin) relative to control; settings: concentration not given here
[27] = biological target: Beta-2 adrenergic receptor (Homo sapiens) (UniProt P07550); experiment: Inhibition of adrenoceptor beta2 (unknown origin) relative to control; settings: concentration not given here
[28] = biological target: D(2) dopamine receptor (Homo sapiens) (UniProt P14416); experiment: Inhibition of D2 (unknown origin) relative to control; settings: concentration not given here
[29] = biological target: D(3) dopamine receptor (Homo sapiens) (UniProt P35462); experiment: Inhibition of D3 (unknown origin) relative to control; settings: concentration not given here
[30] = biological target: D(4) dopamine receptor (Homo sapiens) (UniProt P21917); experiment: Inhibition of D4 (unknown origin) relative to control; settings: concentration not given here
[31] = biological target: D(1B) dopamine receptor (Homo sapiens) (UniProt P21918); experiment: Inhibition of D5 (unknown origin) relative to control; settings: concentration not given here
[32] = biological target: Sodium-dependent dopamine transporter (Homo sapiens) (UniProt Q01959); experiment: Inhibition of DAT receptor (unknown origin) relative to control; settings: concentration not given here
[33] = biological target: Delta-type opioid receptor (Homo sapiens) (UniProt P41143); experiment: Inhibition of DOR receptor (unknown origin) relative to control; settings: concentration not given here
[34] = biological target: Histamine H2 receptor (Homo sapiens) (UniProt P25021); experiment: Inhibition of histamine H2 receptor (unknown origin) relative to control; settings: concentration not given here
[35] = biological target: Muscarinic acetylcholine receptor M1 (Homo sapiens) (UniProt P11229); experiment: Inhibition of muscarinic M1 receptor (unknown origin) relative to control; settings: concentration not given here
[36] = biological target: Muscarinic acetylcholine receptor M2 (Homo sapiens) (UniProt P08172); experiment: Inhibition of muscarinic M2 receptor (unknown origin) relative to control; settings: concentration not given here
[37] = biological target: Muscarinic acetylcholine receptor M3 (Homo sapiens) (UniProt P20309); experiment: Inhibition of muscarinic M3 receptor (unknown origin) relative to control; settings: concentration not given here
[38] = biological target: Muscarinic acetylcholine receptor M4 (Homo sapiens) (UniProt P08173); experiment: Inhibition of muscarinic M4 receptor (unknown origin) relative to control; settings: concentration not given here
[39] = biological target: Mu-type opioid receptor (Homo sapiens) (UniProt P35372); experiment: Inhibition of MOR (unknown origin) relative to control; settings: concentration not given here

cAMP and cAMP-inhibited cGMP 3',5'-cyclic phosphodiesterase 10A (Homo sapiens), sequence (Q9Y233 whole entry, the tested form may be a part): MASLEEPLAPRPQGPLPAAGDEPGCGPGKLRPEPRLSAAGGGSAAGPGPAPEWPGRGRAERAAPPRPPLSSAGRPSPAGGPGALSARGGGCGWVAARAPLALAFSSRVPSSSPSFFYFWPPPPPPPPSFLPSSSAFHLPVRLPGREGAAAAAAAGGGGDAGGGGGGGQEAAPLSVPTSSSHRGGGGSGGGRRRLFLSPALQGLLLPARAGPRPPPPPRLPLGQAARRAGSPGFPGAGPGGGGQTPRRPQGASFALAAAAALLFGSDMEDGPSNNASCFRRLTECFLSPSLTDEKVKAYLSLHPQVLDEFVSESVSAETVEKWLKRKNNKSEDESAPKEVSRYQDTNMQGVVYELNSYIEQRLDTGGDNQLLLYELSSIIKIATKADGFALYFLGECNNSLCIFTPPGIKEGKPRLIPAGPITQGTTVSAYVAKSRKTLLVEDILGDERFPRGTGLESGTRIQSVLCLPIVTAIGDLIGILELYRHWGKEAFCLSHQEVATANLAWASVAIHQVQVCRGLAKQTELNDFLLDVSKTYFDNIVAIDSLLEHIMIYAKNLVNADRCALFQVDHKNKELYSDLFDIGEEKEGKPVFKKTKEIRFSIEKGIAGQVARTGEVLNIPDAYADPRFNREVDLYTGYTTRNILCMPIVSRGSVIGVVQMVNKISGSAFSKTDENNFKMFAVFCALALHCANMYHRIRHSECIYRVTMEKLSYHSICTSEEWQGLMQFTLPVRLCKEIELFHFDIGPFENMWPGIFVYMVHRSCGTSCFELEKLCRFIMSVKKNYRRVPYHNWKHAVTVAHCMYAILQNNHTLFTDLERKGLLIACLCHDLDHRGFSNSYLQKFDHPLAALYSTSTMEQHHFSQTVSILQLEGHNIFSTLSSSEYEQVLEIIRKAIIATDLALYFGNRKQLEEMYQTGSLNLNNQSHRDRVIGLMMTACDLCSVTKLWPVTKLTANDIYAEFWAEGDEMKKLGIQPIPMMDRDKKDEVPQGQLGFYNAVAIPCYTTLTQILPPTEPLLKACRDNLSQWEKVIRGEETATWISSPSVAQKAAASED
Alpha-1A adrenergic receptor (Homo sapiens), sequence (P35348 whole entry): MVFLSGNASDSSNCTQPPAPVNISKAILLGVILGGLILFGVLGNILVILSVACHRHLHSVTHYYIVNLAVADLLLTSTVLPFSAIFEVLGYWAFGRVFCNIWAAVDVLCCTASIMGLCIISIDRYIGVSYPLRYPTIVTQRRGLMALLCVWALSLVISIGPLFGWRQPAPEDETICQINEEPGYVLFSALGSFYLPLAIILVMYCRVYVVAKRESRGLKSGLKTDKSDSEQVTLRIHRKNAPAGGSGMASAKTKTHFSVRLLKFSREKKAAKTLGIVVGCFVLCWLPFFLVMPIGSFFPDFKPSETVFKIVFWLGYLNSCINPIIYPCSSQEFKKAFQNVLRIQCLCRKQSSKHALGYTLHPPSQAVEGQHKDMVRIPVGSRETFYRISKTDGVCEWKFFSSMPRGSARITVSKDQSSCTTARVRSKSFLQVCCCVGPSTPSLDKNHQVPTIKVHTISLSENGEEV
Delta-type opioid receptor (Homo sapiens), sequence (P41143 whole entry): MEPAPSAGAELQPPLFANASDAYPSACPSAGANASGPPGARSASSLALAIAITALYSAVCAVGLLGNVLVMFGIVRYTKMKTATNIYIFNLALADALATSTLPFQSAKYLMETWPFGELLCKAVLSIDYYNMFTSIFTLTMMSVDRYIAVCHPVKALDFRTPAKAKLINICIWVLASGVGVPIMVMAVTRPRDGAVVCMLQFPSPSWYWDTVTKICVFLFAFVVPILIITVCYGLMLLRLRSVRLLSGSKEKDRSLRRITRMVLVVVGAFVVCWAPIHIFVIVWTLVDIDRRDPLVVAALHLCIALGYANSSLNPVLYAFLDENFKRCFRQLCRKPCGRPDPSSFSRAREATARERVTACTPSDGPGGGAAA
3',5'-cyclic-AMP phosphodiesterase 4C (Homo sapiens), sequence (Q08493 whole entry): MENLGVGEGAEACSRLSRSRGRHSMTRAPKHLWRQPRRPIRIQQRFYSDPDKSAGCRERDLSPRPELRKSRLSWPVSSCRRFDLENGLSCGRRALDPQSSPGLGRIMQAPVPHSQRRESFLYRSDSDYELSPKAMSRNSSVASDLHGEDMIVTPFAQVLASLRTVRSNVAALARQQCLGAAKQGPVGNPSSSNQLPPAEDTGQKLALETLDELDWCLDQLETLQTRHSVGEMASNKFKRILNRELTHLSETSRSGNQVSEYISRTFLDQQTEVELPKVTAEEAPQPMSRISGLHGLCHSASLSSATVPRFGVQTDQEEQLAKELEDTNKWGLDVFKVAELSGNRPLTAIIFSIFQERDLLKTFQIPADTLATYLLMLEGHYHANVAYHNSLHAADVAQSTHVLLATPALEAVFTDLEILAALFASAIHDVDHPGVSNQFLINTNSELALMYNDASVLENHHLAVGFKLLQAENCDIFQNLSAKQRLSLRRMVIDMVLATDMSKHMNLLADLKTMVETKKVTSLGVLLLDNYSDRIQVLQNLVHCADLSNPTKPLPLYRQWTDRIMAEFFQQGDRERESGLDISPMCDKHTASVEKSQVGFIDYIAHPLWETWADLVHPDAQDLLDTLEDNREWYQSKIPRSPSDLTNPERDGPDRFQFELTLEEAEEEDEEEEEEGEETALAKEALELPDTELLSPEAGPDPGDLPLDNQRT
cGMP-dependent 3',5'-cyclic phosphodiesterase (Homo sapiens), sequence (O00408 whole entry, the tested form may be a part): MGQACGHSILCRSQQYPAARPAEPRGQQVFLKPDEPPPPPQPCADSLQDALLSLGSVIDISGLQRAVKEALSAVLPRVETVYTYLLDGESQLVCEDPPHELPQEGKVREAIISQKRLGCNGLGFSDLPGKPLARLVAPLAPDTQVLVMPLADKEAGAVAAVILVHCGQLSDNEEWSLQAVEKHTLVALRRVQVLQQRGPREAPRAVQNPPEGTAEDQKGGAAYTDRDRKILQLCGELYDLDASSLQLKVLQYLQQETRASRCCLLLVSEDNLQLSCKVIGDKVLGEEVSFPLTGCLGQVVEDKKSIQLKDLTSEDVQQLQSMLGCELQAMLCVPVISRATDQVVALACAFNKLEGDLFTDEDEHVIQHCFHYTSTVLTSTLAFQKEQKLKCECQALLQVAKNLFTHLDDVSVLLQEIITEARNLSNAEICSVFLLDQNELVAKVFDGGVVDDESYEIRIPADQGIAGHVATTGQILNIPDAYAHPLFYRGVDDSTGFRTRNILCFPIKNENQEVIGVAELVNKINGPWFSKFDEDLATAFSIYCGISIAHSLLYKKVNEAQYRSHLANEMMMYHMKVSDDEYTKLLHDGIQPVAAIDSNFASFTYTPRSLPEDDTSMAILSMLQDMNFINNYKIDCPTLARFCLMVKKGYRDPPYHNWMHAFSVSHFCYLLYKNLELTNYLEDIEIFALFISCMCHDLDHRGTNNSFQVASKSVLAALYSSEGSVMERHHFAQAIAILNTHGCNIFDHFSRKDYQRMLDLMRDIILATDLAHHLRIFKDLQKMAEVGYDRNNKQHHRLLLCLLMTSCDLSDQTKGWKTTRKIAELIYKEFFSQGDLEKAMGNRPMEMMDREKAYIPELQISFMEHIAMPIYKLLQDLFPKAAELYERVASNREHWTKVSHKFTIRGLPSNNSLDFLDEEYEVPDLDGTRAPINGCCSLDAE
5-hydroxytryptamine receptor 2A (Homo sapiens), sequence (P28223 whole entry): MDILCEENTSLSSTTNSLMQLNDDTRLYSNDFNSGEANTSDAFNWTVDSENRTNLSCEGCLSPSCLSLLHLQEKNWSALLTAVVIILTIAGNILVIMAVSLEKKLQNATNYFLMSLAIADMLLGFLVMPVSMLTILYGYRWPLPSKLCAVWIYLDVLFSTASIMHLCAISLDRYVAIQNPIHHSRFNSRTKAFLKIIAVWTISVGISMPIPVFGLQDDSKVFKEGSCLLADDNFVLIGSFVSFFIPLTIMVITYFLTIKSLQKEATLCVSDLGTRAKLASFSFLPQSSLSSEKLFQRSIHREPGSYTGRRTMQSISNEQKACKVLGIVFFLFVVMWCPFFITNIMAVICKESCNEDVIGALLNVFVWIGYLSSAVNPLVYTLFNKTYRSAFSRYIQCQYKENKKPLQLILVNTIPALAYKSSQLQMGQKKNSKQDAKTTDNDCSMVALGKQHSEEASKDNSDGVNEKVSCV
Dual specificity calcium/calmodulin-dependent 3',5'-cyclic nucleotide phosphodiesterase 1A (Homo sapiens), sequence (P54750 whole entry): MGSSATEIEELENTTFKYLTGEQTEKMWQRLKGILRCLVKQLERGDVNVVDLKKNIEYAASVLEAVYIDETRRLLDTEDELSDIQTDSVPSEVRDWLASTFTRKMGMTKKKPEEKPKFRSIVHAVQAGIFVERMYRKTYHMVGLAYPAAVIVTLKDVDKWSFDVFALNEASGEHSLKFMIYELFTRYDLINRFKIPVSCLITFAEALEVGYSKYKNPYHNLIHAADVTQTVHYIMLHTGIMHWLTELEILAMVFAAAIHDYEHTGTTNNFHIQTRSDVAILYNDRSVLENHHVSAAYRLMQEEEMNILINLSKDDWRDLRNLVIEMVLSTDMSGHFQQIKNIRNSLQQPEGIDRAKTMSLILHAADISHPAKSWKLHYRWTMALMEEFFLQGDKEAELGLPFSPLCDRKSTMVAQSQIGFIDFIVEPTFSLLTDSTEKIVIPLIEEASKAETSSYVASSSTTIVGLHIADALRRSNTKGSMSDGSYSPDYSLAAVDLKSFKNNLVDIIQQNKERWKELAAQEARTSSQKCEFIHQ
Muscarinic acetylcholine receptor M1 (Homo sapiens), sequence (P11229 whole entry): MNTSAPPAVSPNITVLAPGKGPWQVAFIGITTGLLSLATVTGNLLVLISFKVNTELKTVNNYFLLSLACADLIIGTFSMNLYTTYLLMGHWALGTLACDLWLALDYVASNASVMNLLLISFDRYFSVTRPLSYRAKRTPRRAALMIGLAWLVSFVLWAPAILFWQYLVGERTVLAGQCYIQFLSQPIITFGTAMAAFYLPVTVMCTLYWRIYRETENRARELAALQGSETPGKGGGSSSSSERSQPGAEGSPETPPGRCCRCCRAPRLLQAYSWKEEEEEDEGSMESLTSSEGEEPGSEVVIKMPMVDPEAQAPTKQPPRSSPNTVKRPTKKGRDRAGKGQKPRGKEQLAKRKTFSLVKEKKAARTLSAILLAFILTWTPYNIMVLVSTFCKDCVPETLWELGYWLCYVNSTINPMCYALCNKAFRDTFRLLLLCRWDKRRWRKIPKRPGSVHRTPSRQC

- CLint scaled [2]: 97.1 mL/min/kg
- CLint scaled [3]: 100 mL/min/kg
- fraction unbound [4]: 0.038
- half-life [5]: 49.4 min
- inhibition [6]: < 50%
- inhibition [7]: < 50%
- inhibition [8]: < 50%
- inhibition [10]: < 50%
- inhibition [11]: < 50%
- inhibition [12]: < 50%
- inhibition [13]: < 50%
- inhibition [14]: < 50%
- inhibition [15]: < 50%
- inhibition [16]: < 50%
- inhibition [17]: < 50%
- inhibition [18]: < 50%
- inhibition [19]: < 50%
- inhibition [20]: < 50%
- inhibition [21]: < 50%
- inhibition [22]: < 50%
- inhibition [23]: < 50%
- inhibition [24]: < 50%
- inhibition [25]: < 50%
- inhibition [26]: < 50%
- inhibition [27]: < 50%
- inhibition [28]: < 50%
- inhibition [29]: < 50%
- inhibition [30]: < 50%
- inhibition [31]: < 50%
- inhibition [32]: < 50%
- inhibition [33]: < 50%
- inhibition [34]: < 50%
- inhibition [35]: < 50%
- inhibition [36]: < 50%
- inhibition [37]: < 50%
- inhibition [38]: < 50%
- inhibition [39]: < 50%
Structure (SMILES): O=C(c1nc2cccnc2n1-c1ccc(Cl)c(Cl)c1)N1CC(F)(F)C1
- Activity [1]: Non-Toxic
- inhibition [9]: < 50%
